Results from patent publication US12466839B2, “Allosteric AKT inhibitors for use in the treatment of Hereditary Hemorrhagic Telangiectasia” (VADERIS THERAPEUTICS AG, priority 2020, dated 2025).
pIC50: −log10 of the molar value.

Key:
[1] = biological target: T1, FPR1 (Homo sapiens, UniProt P21462); assay: Millipore Drug Discovery Safety and Liability Panel; assay type: cell-based
T1 construct: purchased Millipore

[2] = biological target: T2, AT1 (Homo sapiens, UniProt P30556); assay: as above; assay type: cell-based
T2 construct: purchased Millipore

[3] = biological target: T3, LPA3 (Homo sapiens, UniProt Q9UBY5); assay: as above; assay type: cell-based
T3 construct: purchased Millipore

[4] = biological target: T4, V1A (Homo sapiens, UniProt P37288); assay: as above; assay type: cell-based
T4 construct: Millipore

[5] = biological target: T5, MC5 (Homo sapiens, UniProt P33032); assay: as above; assay type: cell-based
T5 construct: purchased Millipore

[6] = system: Thrombin-activated PARs; assay: as above; assay type: cell-based; conditions: 10 μM
[7] = biological target: T6, VPAC2 (Homo sapiens, UniProt P41587); assay: as above; assay type: cell-based
T6 construct: Millipore

[8] = biological target: T7, M1 (Homo sapiens, UniProt P11229); assay: as above; assay type: cell-based
T7 construct: purchased Millipore

[9] = system: AKT kinase in Pi3Kα or PTEN mutant cells lines (e.g. MCF7, BT474 or LnCAP); assay: AKT kinase inhibition in Pi3Kα or PTEN mutant cell lines; assay type: cell-based; conditions: read-out: IC50 range for AKT kinase inhibition
[10] = system: p42/p44 (MAPK pathway); assay: p42/p44 phosphorylation in primary lung endothelial cells (selectivity control); assay type: cell-based, mouse; conditions: control for selectivity
Method: ECs were seeded in six-well plates and allowed to grow to 90% confluence. Cells were then washed with PBS and serum starved for six hours. […] Cells were washed with cold PBS and then lysed in RIPA Buffer (50 mM Tris-HCl pH 7.4, 150 mM NaCl, 1 mM Ethylene diamine tetra-acetic acid (EDTA), 1% Triton X-100, 0.1% Sodium Dodecyl Sulfate (SDS), 0.5% deoxycholate) containing protease and phosphatase inhibitors (PPC1010, Sigma-Aldrich).
Samples were boiled for 10 min and proteins were separated on 10% acrylamide gel and transferred onto nitrocellulose membrane before blocking with 5% BSA or 5% powdered milk/Tris-buffered saline/Tween and incubated with the following primary antibodies: rabbit anti-Phospho-Akt1 (Ser473) (44-621G, Invitrogen), rabbit anti-Akt1 (2938S, Cell Signaling), rabbit anti-PhosphoSmad1/5 (Ser463/465) (9516S, Cell Signaling), rabbit anti-Smad1 (6944S, Cell Signaling), mouse anti-Phospho-p44/42 MAPK (Thr202/Tyr204) (E10) (9106S, Cell signaling), rabbit p44/42 MAPK (Erk1/2) (9102S, Cell Signaling), goat anti-Endoglin (AF1097, R&D systems) and mouse anti-β-actin (A5441, Sigma-Aldrich). Detection was achieved using HRP anti-rabbit IgG or HRP anti-mouse IgG (W4011 or W4021 respectively, Promega) or HRP anti-goat IgG (HAF017, R&D systems) followed by scanning on BIO-RAD ChemiDoc imager. […]

[11] = biological target: T8, BB2 (Homo sapiens, UniProt P30550); assay: Millipore Drug Discovery Safety and Liability Panel; assay type: cell-based
T8 construct: purchased Millipore

[12] = biological target: T9, CB2 (Homo sapiens, UniProt P34972); assay: as above; assay type: cell-based
T9 construct: purchased Millipore

[13] = biological target: T10, CCK2 (Homo sapiens, UniProt P32239); assay: as above; assay type: cell-based
T10 construct: purchased Millipore

[14] = biological target: T11, M2 (Homo sapiens, UniProt P08172); assay: as above; assay type: cell-based
T11 construct: purchased Millipore

[15] = biological target: KCNQ1 (Homo sapiens, UniProt P51787); assay: Cardiac ion channel profile; assay type: cell-based
[16] = biological target: T12, PTH1 (Homo sapiens, UniProt Q03431); assay: Millipore Drug Discovery Safety and Liability Panel; assay type: cell-based
T12 construct: Millipore

[17] = biological target: T13, OPRD1 (Homo sapiens, UniProt P41143); assay: as above; assay type: cell-based
T13 construct: Millipore

[18] = biological target: T14, EP2 (Homo sapiens, UniProt P43116); assay: as above; assay type: cell-based
T14 construct: purchased Millipore

[19] = biological target: T15, 5-HT1A (Homo sapiens, UniProt P08908); assay: as above; assay type: cell-based
T15 construct: purchased Millipore

[20] = biological target: T16, GAL1 (Homo sapiens, UniProt P47211); assay: as above; assay type: cell-based
T16 construct: purchased Millipore

[21] = biological target: T17, H1 (Homo sapiens, UniProt P35367); assay: as above; assay type: cell-based
T17 construct: purchased Millipore

[22] = biological target: T18, H3 (Homo sapiens, UniProt Q9Y5N1); assay: as above; assay type: cell-based
T18 construct: purchased Millipore

[23] = read-out: ANTAGONIST mean % inhibition
[24] = read-out: AGONIST mean % increase in activity

T10 sequence (P32239 whole entry): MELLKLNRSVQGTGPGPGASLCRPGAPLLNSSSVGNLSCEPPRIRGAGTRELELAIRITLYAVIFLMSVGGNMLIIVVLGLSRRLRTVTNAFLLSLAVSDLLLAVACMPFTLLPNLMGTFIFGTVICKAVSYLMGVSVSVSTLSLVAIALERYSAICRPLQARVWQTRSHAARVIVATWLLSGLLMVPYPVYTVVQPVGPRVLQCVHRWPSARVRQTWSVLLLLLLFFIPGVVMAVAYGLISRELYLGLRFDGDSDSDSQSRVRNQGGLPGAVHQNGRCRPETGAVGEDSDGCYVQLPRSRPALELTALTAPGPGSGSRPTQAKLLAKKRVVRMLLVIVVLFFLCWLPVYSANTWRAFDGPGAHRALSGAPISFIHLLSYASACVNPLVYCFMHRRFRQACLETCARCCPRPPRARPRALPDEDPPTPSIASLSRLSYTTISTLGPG
T7 sequence (P11229 whole entry): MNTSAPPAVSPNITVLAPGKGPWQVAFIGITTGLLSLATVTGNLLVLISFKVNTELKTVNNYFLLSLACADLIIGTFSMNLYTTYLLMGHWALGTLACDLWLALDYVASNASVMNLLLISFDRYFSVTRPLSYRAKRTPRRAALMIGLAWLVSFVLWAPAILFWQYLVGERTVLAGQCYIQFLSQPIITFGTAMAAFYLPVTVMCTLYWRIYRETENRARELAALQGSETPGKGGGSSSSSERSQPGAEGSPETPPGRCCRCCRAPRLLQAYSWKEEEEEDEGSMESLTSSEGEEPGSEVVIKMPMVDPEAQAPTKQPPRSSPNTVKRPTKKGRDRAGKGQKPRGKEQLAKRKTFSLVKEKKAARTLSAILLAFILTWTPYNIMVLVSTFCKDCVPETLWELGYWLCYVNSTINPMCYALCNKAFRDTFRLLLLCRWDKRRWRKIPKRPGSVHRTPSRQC
T11 sequence (P08172 whole entry): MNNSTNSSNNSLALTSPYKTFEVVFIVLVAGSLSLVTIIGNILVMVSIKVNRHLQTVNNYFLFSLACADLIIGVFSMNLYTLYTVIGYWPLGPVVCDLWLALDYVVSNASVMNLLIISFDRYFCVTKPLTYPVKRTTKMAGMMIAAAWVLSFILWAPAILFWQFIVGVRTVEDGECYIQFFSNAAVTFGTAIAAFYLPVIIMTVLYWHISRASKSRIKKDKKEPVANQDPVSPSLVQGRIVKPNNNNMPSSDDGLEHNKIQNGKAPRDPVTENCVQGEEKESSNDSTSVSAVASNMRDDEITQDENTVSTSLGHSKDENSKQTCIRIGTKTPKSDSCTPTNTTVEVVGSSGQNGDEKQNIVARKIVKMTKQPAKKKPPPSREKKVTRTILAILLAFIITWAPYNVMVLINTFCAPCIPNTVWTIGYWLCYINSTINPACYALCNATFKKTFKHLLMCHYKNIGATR
T3 sequence (Q9UBY5 whole entry, species assumed): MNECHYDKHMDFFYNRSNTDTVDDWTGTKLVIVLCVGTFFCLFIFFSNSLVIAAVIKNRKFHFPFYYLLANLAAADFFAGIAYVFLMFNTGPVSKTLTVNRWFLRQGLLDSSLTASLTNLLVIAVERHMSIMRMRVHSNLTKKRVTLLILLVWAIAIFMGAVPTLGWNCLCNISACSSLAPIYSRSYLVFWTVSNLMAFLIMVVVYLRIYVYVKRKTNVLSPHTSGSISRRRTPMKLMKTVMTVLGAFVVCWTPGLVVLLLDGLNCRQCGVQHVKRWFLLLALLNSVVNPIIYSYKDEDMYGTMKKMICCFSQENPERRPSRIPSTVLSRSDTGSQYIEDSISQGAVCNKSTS
T13 sequence (P41143 whole entry, species assumed): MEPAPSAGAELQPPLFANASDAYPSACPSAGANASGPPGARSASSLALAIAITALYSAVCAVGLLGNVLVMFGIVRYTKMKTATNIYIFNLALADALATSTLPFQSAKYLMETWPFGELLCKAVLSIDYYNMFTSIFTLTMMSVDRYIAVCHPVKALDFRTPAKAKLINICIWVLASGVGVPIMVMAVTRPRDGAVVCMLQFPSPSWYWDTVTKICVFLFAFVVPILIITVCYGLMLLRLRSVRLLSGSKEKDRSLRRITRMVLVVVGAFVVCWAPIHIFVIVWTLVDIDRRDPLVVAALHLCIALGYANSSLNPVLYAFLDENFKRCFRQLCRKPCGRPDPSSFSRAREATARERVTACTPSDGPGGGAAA
T15 sequence (P08908 whole entry, species assumed): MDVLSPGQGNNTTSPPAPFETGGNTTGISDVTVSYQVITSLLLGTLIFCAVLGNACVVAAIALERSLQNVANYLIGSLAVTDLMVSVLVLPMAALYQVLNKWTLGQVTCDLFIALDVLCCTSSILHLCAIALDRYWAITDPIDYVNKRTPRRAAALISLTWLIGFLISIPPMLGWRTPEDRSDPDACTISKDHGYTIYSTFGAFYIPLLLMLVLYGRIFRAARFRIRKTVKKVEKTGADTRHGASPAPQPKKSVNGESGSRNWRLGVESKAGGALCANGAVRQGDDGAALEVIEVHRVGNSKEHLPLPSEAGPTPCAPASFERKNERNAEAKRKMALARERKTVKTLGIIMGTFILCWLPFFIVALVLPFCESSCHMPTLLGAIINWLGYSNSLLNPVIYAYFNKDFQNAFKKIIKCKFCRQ
T4 sequence (P37288 whole entry): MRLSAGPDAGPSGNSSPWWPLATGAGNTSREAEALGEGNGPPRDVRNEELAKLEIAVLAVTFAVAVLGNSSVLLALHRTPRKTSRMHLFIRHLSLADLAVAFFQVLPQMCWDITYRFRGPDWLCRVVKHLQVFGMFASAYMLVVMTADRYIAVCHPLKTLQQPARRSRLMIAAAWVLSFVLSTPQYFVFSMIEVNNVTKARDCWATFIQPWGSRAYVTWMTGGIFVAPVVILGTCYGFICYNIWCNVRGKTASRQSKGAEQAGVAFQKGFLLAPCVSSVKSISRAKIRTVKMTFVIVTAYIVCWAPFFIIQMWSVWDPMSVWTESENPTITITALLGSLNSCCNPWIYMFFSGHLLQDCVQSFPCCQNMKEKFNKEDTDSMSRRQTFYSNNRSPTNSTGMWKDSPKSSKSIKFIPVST
T12 sequence (Q03431 27-593): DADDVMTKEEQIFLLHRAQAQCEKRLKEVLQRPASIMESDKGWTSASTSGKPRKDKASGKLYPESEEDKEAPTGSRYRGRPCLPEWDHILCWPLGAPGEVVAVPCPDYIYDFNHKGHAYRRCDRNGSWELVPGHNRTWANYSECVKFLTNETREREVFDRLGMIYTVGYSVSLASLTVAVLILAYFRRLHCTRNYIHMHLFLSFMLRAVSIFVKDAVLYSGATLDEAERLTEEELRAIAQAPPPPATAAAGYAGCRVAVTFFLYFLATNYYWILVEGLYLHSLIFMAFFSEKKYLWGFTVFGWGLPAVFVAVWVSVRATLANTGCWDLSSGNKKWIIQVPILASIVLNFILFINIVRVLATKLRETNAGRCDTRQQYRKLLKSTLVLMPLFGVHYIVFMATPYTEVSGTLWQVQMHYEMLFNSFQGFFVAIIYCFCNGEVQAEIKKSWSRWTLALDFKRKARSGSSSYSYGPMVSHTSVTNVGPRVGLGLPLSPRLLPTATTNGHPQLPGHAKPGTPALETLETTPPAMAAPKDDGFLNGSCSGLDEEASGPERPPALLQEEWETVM
T9 sequence (P34972 whole entry): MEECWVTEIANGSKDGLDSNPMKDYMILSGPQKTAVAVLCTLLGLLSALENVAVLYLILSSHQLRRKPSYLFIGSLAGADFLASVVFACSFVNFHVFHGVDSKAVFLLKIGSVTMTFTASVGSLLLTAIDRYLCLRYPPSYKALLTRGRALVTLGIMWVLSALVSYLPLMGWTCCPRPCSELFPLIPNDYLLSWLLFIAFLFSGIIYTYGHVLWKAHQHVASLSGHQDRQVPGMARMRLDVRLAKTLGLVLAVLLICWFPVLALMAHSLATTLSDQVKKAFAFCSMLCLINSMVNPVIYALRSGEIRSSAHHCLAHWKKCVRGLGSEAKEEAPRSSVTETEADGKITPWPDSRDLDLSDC
T5 sequence (P33032 whole entry): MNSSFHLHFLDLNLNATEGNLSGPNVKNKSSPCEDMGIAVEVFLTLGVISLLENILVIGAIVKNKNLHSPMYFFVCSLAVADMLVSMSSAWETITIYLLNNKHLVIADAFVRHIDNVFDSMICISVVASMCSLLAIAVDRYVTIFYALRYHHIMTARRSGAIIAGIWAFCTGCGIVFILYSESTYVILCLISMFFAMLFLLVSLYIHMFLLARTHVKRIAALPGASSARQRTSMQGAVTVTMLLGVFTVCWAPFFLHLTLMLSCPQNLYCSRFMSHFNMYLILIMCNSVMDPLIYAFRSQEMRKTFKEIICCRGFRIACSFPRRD
T6 sequence (P41587 24-438): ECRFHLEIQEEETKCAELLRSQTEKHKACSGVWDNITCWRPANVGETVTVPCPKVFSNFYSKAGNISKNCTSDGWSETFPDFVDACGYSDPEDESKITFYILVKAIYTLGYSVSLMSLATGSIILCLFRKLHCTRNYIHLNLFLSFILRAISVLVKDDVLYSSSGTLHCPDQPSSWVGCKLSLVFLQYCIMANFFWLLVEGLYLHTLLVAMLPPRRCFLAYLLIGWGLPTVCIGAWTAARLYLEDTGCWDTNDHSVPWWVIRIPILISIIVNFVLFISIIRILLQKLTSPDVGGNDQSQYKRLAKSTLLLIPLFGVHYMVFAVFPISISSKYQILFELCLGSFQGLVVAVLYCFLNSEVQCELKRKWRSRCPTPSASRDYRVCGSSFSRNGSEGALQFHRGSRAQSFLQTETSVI

Work on `CCN1C(=O)COc2nc(-c3ccc(C4(N)CC(O)C4)cc3)c(-c3ccccc3)cc21.O=C(O)C(O)C(O)C(=O)O` [VAD044, 6-(4-(1-amino-3-hydroxycyclobutyl)phenyl)-1-ethyl-7-phenyl-1H-pyrido[2,3-b][1,4]oxazin-2(3H)-one L-tartrate] yielded an activation at 10 µM ([1]; FPR1, 10 μM, read-out: AGONIST mean % increase in activity) of -0.1%, an inhibition at 10 µM [1, 23] of 13.3% and an activation at 10 µM ([2]; AT1, 10 μM, read-out: AGONIST mean % increase in activity) of -0.1%. The inhibition at 10 µM [2, 23] was 5.4%, the activation at 10 µM ([3]; LPA3, 10 μM, read-out: AGONIST mean % increase in activity) was -0.7% and the inhibition at 10 µM [3, 23] was -0.2%. The activation at 10 µM ([4]; V1A, 10 μM, read-out: AGONIST mean % increase in activity) was -1.5%, the inhibition at 10 µM [4, 23] was 2.5% and the activation at 10 µM ([5]; MC5, 10 μM, read-out: AGONIST mean % increase in activity) was -0.2%. For the same compound, the inhibition at 10 µM [5, 23] was 8.4%, the “AGONIST mean % increase in activity” value [6] was 0% and the “ANTAGONIST mean % inhibition” value [6] was −1.2%. It also gave an activation at 10 µM ([7]; VPAC2, 10 μM, read-out: AGONIST mean % increase in activity) of 0%, an inhibition at 10 µM [7, 23] of 6.2% and an activation at 10 µM ([8]; M1, 10 μM, read-out: AGONIST mean % increase in activity) of -0.7%. For the same compound, the inhibition at 10 µM [8, 23] was -3.4%, the pIC50 [9] was 6.89 to 7.30 and the “impact on the MAPK pathway (p42/p44 phosphorylation)” value [10] was “no impact on the MAPK pathway”. For the same compound, the activation at 10 µM ([11]; BB2, 10 μM, read-out: AGONIST mean % increase in activity) was -0.9%, the inhibition at 10 µM [11, 23] was 0.9% and the activation at 10 µM ([12]; CB2, 10 μM, read-out: AGONIST mean % increase in activity) was -0.9%. It also gave an inhibition at 10 µM [12, 23] of 10.6%, an activation at 10 µM ([13]; CCK2, 10 μM, read-out: AGONIST mean % increase in activity) of -0.2% and an inhibition at 10 µM [13, 23] of 8.3%. It also gave an activation at 10 µM [14, 24] of 0%, an inhibition at 10 µM [14, 23] of 20.6% and an inhibition at 10 µM [15] of under 25%. It also gave an activation at 10 µM ([16]; PTH1, 10 μM, read-out: AGONIST mean % increase in activity) of -1.1%, an inhibition at 10 µM [16, 23] of -2.5% and an activation at 10 µM ([17]; OPRD1, 10 μM, read-out: AGONIST mean % increase in activity) of -0.9%. For the same compound, the inhibition at 10 µM [17, 23] was 2.8%, the activation at 10 µM ([18]; EP2, 10 μM, read-out: AGONIST mean % increase in activity) was -1% and the inhibition at 10 µM [18, 23] was -0.5%. It also gave an activation at 10 µM [19, 24] of 2.1%, an inhibition at 10 µM [19, 23] of 30.6% and an activation at 10 µM ([20]; GAL1, 10 μM, read-out: AGONIST mean % increase in activity) of 0.3%. For the same compound, the inhibition at 10 µM [20, 23] was 3.4%, the activation at 10 µM ([21]; H1, 10 μM, read-out: AGONIST mean % increase in activity) was -0.2% and the inhibition at 10 µM [21, 23] was 3.8%. It also gave an activation at 10 µM ([22]; H3, 10 μM, read-out: AGONIST mean % increase in activity) of -0.6% and an inhibition at 10 µM [22, 23] of 3.5%.
